Measured values: ChEMBL document CHEMBL5032535, “Design, synthesis and biological evaluation of a novel spiro oxazolidinedione as potent p300/CBP HAT inhibitor for the treatment of ovarian cancer” (Bioorg Med Chem, 2021)
Active and inactive are the calls of the source. The rule behind the calls is not given here.

How the values were obtained:
CREB-binding protein = CREB-binding protein (Homo sapiens, UniProt Q92793); experiment: Inhibition of CBP (unknown origin) preincubated for 15 mins followed by addition of substrate [3H] Ac-CoA and measured after 60 mins by liquid scintillation counting assay
[1] = molecular target: T1, Histone acetyltransferase p300 (Homo sapiens, UniProt Q09472); experiment: Inhibition of p300 (unknown origin) preincubated for 15 mins followed by addition of substrate [3H] Ac-CoA and measured after 60 mins by liquid scintillation counting assay
OVCAR-3 [2] = experiment: Antiproliferative activity against human OVCAR-3 cells assessed as inhibition of cell proliferation measured after 120 hrs by Cell-titre glo assay; assay type: functional, cell-based; settings: OVCAR-3, 120 h
A2780 = experiment: Antiproliferative activity against human A2780 cells assessed as inhibition of cell proliferation measured after 120 hrs by Cell-titre glo assay; assay type: functional, cell-based; settings: A2780, 120 h
[3] = Stability in mouse liver microsomes assessed as intrinsic clearance; assay type: ADME, Microsome
[4] = Stability in human liver microsomes assessed as intrinsic clearance; assay type: ADME, Microsome
[5] = Stability in rat liver microsomes assessed as intrinsic clearance; assay type: ADME, Microsome
[6] = molecular target: T1, Histone acetyltransferase p300; experiment: Inhibition of p300 (unknown origin)
[7] = Toxicity in Balb/c nude mouse xenografted with human OVCAR-3 cells assessed as body weight loss at 20 to 30 mg/kg, ip qd measured every 3 to 4 days for 2 weeks; assay type: organism-based; settings: in vivo, 336 h, dose 20-30 mg/kg
[8] = Tmax in Sprague-Dawley rat at 3 mg/kg, po; assay type: ADME, organism-based; settings: in vivo
[9] = Half life in Sprague-Dawley rat at 3 mg/kg, po; assay type: ADME, organism-based; settings: in vivo
OVCAR-3 [10] = experiment: Antitumour activity against human OVCAR-3 cells xenografted in Balb/c mouse assessed as reduction of tumor volume at 30 mg/kg, ip qd measured every 3 to 4 days for 2 weeks (reference value: 2838.39 +/- 1392.47 mm3); assay type: functional
OVCAR-3 [11] = experiment: Antitumour activity against human OVCAR-3 cells xenografted in Balb/c mouse assessed as reduction of tumor volume at 20 mg/kg, ip qd measured every 3 to 4 days for 2 weeks; assay type: functional, organism-based
[12] = molecular target: Histone acetyltransferase KAT2A (Homo sapiens) (UniProt Q92830); experiment: Inhibition of GCN5 in human OVCAR-3 cells assessed as reduction of H3K9ac levels at 0.25 to 4 uM after 24 hrs by Western blot assay; assay type: cell-based; settings: dose 0.25-4 µM
[13] = molecular target: T1, Histone acetyltransferase p300; experiment: Inhibition of p300 in human OVCAR-3 cells assessed as reduction of H3K18ac levels measured after 24 hrs by Western blot assay; assay type: cell-based; settings: dose 0.25-4 µM
TOV21G = experiment: Antiproliferative activity against human TOV-21G cells assessed as inhibition of cell proliferation measured after 120 hrs by Cell-titre glo assay; assay type: functional, cell-based
OVCAR-3 [14] = experiment: Antitumour activity against human OVCAR-3 cells xenografted in Balb/c mouse assessed as reduction of tumor volume at 100 mg/kg, ip qd measured every 3 to 4 days for 2 weeks; assay type: functional, organism-based
[15] = Cmax in Sprague-Dawley rat at 3 mg/kg, po; assay type: ADME, organism-based; design: route oral, dose 3 mg/kg; settings: in vivo
[16] = AUC(last) in Sprague-Dawley rat at 3 mg/kg, po; assay type: ADME, organism-based; design: time 0 - last, route oral, dose 3 mg/kg; settings: in vivo
HEK293 = experiment: Antiproliferative activity against human 293 cells assessed as inhibition of cell proliferation measured after 120 hrs by Cell-titre glo assay; assay type: cell-based; settings: hek293, 120 h
SK-OV-3 = experiment: Antiproliferative activity against human SK-OV-3 cells assessed as inhibition of cell proliferation measured after 120 hrs by Cell-titre glo assay; assay type: functional, cell-based
[17] = molecular target: CREB-binding protein/Histone acetyltransferase p300 (Homo sapiens) (UniProt Q09472+Q92793); experiment: Inhibition of p300/CBP in human OVCAR-3 cells assessed as reduction of C-myc levels at 0.25 uM measured after 2 days by Western blot assay relative to control; assay type: cell-based; settings: time 2.0 day
[18] = molecular target: T1, Histone acetyltransferase p300; experiment: Inhibition of p300 in human OVCAR-3 cells assessed as reduction of H3K27ac levels measured after 24 hrs by Western blot assay; assay type: cell-based; settings: dose 0.25-4 µM
[19] = Toxicity in Balb/c nude mouse xenografted with human OVCAR-3 cells assessed as body weight loss at 30 mg/kg, ip measured after 24 days; assay type: organism-based; settings: in vivo, 576 h, time 24 day

T1 sequence (Q09472 whole entry): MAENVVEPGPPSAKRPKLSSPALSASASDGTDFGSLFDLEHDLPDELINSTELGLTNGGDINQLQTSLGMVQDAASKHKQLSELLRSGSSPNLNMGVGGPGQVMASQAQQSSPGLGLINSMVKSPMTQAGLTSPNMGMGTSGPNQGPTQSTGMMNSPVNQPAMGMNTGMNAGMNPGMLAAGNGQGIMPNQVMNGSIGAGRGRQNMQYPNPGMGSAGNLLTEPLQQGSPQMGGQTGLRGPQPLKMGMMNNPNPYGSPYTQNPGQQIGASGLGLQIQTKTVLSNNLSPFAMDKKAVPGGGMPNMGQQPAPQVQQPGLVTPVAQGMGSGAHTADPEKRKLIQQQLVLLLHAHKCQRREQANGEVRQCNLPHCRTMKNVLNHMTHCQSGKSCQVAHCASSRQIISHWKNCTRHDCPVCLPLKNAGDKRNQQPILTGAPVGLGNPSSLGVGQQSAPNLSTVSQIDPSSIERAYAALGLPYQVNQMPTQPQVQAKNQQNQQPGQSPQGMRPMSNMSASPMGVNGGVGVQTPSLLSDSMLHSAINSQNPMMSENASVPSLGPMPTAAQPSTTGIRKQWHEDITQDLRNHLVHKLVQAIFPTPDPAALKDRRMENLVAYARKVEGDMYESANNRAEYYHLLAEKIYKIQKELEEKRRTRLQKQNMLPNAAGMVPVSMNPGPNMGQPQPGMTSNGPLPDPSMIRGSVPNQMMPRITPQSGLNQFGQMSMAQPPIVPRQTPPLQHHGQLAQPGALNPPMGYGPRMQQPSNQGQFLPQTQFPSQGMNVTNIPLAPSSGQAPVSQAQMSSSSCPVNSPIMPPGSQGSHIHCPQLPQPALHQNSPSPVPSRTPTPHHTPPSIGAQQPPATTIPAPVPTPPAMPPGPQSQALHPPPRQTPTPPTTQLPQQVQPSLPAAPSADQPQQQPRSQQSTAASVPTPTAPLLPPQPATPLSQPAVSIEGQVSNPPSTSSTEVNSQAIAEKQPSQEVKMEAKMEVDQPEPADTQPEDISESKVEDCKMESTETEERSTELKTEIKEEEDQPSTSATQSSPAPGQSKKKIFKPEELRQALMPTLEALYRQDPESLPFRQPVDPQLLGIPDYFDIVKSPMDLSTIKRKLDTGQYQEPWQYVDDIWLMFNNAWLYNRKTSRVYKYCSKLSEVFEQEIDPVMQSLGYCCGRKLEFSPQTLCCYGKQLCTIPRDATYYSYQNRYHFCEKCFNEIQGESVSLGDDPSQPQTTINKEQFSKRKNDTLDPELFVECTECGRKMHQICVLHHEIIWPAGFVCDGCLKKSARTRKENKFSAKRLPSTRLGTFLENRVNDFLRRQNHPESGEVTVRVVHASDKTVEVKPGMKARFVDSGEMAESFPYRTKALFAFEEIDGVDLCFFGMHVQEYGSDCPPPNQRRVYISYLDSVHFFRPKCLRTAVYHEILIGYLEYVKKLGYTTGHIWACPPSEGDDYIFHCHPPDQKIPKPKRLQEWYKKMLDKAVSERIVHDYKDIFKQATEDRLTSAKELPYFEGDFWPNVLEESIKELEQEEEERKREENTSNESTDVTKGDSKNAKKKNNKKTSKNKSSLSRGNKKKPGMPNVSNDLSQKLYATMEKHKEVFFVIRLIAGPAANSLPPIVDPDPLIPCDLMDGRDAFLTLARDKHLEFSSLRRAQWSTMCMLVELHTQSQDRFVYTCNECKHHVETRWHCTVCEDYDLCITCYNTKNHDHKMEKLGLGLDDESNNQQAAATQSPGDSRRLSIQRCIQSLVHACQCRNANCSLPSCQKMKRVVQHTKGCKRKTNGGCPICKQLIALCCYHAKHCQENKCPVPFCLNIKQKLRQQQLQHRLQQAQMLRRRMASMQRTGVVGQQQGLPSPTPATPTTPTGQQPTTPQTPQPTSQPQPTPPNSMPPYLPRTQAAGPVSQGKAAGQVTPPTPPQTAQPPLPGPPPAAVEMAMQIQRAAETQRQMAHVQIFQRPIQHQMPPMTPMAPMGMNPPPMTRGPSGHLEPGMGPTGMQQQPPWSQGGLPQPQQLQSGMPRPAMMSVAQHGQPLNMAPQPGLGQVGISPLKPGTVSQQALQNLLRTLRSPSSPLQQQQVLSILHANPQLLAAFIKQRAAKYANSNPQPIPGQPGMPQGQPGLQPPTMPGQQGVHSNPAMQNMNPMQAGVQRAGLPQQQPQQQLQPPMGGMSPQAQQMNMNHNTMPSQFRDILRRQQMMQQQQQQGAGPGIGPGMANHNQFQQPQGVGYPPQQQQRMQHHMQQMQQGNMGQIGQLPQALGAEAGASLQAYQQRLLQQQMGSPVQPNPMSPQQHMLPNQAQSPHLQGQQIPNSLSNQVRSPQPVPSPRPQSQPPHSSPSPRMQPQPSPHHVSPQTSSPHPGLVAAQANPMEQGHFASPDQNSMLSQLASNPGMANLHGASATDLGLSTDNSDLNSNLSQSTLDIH
Chain of CREB-binding protein (Q92793 whole entry): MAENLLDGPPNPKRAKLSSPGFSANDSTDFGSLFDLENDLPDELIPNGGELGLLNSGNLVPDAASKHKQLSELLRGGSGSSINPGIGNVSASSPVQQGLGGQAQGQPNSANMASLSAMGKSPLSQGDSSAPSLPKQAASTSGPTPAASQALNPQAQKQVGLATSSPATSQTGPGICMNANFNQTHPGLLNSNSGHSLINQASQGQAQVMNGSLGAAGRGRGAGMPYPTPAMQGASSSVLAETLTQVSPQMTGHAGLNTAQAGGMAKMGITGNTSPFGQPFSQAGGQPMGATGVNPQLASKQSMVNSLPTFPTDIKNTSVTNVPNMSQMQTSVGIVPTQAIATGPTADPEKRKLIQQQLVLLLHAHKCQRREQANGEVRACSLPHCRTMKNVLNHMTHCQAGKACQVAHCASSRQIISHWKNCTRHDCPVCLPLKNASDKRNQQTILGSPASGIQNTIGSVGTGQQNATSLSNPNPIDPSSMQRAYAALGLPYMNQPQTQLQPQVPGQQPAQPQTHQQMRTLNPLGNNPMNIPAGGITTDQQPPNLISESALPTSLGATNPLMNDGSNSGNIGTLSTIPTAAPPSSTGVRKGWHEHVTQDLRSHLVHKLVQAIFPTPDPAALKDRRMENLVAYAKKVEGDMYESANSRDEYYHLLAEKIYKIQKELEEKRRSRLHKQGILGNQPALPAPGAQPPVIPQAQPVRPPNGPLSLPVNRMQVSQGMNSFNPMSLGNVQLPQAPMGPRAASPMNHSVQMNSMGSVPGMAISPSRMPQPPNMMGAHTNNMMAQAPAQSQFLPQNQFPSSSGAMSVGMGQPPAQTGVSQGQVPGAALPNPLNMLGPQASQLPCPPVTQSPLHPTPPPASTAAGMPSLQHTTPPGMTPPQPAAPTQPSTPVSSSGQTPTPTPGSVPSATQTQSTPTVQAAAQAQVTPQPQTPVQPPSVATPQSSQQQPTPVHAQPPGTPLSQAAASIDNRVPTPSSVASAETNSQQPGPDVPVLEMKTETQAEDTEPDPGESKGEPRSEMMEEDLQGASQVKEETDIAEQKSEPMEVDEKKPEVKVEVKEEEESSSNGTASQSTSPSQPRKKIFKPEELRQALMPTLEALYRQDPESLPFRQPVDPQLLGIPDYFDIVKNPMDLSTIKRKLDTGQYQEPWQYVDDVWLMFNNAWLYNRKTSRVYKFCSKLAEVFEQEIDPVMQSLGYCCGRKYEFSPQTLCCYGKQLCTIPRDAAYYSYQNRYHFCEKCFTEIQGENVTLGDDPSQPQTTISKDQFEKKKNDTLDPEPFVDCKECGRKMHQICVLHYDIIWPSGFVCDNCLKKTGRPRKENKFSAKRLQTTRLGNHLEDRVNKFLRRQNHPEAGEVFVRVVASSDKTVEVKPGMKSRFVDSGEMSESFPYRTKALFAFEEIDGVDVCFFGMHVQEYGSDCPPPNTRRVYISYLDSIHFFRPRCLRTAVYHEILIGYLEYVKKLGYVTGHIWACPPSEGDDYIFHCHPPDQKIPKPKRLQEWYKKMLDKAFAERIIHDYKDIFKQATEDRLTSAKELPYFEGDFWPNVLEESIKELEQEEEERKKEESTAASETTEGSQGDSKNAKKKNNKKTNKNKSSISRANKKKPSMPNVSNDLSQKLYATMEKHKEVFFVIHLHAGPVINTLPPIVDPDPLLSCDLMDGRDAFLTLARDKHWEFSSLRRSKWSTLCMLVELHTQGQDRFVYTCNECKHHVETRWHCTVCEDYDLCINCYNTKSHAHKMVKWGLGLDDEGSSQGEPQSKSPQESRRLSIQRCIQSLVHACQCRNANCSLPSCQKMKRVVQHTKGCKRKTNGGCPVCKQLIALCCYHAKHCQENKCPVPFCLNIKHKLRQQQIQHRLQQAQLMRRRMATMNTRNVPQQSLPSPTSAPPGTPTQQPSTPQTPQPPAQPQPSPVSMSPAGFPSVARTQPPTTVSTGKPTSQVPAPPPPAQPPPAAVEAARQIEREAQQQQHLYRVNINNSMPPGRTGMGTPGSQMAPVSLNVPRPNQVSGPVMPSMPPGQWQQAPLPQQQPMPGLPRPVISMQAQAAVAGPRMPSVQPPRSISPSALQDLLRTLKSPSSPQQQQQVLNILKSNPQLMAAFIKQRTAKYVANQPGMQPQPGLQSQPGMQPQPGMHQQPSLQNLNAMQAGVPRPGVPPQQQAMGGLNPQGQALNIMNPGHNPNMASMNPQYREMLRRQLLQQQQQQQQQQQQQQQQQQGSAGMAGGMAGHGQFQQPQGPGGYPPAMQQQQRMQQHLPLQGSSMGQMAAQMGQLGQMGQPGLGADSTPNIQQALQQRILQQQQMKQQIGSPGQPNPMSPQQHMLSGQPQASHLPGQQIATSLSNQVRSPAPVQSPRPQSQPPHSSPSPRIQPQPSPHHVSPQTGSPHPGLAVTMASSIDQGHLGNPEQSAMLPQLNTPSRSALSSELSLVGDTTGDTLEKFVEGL
Chain of CREB-binding protein/Histone acetyltransferase p300 (Homo sapiens) (Q09472 whole entry, looked up): as the sequence (Q09472 whole entry) above
Chain of CREB-binding protein/Histone acetyltransferase p300 (Homo sapiens) (Q92793 whole entry, looked up): as the sequence (Q92793 whole entry) above

| Compound | IC50 (CREB-binding protein) | IC50 [1] | EC50 (OVCAR-3 [2]) | EC50 (A2780) | also measured |
| --- | --- | --- | --- | --- | --- |
| CNC(=O)Nc1ccc2c(c1)CC[C@@]21OC(=O)N(CC(=O)N2Cc3cccnc3CC[C@H]2C2CC2)C1=O | 0.044 µM | 0.01 µM | – | – | – |
| CNC(=O)Nc1cc2c(cc1F)[C@@]1(CC2)OC(=O)N(CC(=O)N2Cc3ccc(F)cc3CC[C@H]2C2CC2)C1=O | 0.0082 µM | 0.0017 µM | 4.3 µM | 4.47 µM | CLH [3]: 106 mL/min/g; CLH [4]: 161 mL/min/g; CLH [5]: 94.4 mL/min/g |
| CNC(=O)Nc1ccc2c(c1)CC[C@@]21OC(=O)N(CC(=O)N2Cc3ncccc3CC[C@H]2C2CC2)C1=O | 0.03 µM | 0.0086 µM | – | – | – |
| CNC(=O)Nc1ccc2c(c1)CC[C@@]21OC(=O)N(CC(=O)N2Cc3cnccc3CC[C@H]2C2CC2)C1=O | 0.041 µM | 0.013 µM | – | – | – |
| CNC(=O)Nc1ccc2c(c1)CC[C@@]21OC(=O)N(CC(=O)N2Cc3ccncc3CC[C@H]2C2CC2)C1=O | 0.028 µM | 0.0098 µM | – | – | – |
| CNC(=O)Nc1ccc2c(c1)CC[C@@]21OC(=O)N(CC(=O)N2Cc3sccc3OC[C@H]2C2CC2)C1=O | 0.012 µM | 0.004 µM | – | – | – |
| CNC(=O)Nc1ccc2c(c1)OCC[C@@]21OC(=O)N(CC(=O)N2Cc3ccc(F)cc3CC[C@H]2C2CC2)C1=O | 0.022 µM | 0.0086 µM | – | – | – |
| CNC(=O)Nc1ccc2c(c1)CC[C@@]21OC(=O)N(CC(=O)N2Cc3ccccc3CC[C@H]2C)C1=O | 0.028 µM | 0.0025 µM | 0.865 µM | 2.71 µM | – |
| CNC(=O)Nc1ccc2c(c1)CC[C@@]21OC(=O)N(CC(=O)N(Cc2ccc(F)cc2)[C@@H](C)C(F)(F)F)C1=O [A-485] | – | – | 5.44 µM | – | – |

More lines, main results first:

| IC50 (CREB-binding protein) | IC50 [1] | EC50 (OVCAR-3 [2]) | EC50 (A2780) | Compound | also measured |
| --- | --- | --- | --- | --- | --- |
| 0.014 µM | 0.0022 µM | – | – | CNC(=O)Nc1ccc2c(c1)CCC[C@@]21OC(=O)N(CC(=O)N2Cc3ccc(F)cc3CC[C@H]2C2CC2)C1=O | – |
| 0.007 µM | 0.00056 µM | 0.164 µM | 0.974 µM | CNC(=O)Nc1ccc2c(c1)CC[C@@]21OC(=O)N(CC(=O)N2Cc3cc(F)c(F)cc3CC[C@H]2C2CC2)C1=O | – |
| 0.0081 µM | 0.00095 µM | 0.0904 µM | 0.471 µM | CNC(=O)Nc1ccc2c(c1)CC[C@@]21OC(=O)N(CC(=O)N2Cc3ccc(F)cc3CC[C@H]2C2CC2)C1=O | CLH [3]: 150 mL/min/g; CLH [4]: 112 mL/min/g; CLH [5]: 258 mL/min/g |
| 0.051 µM | 0.012 µM | – | – | CNC(=O)Nc1ccc2c(c1)COC[C@@]21OC(=O)N(CC(=O)N2Cc3cc(F)ccc3OC[C@H]2C2CC2)C1=O | – |
| 0.069 µM | 0.011 µM | – | – | CNC(=O)Nc1ccc2c(c1)CCC[C@@]21OC(=O)N(CC(=O)N2Cc3cc(F)ccc3OC[C@H]2C2CC2)C1=O | – |
| 0.68 µM | 0.43 µM | – | – | CNC(=O)Nc1ccc2c(c1)CC[C@@]21OC(=O)N(CC(=O)N2Cc3sc(C)c(C)c3OC[C@H]2C(F)(F)F)C1=O | – |
| 0.0071 µM | 0.00049 µM | 0.153 µM | 0.678 µM | CNC(=O)Nc1ccc2c(c1)CC[C@@]21OC(=O)N(CC(=O)N2Cc3cc(F)ccc3OC[C@H]2C2CC2)C1=O | IC50 [6]: 0.00051 µM; Activity [7]: Toxic; Tmax [8]: 1 h; CLH [3]: 48 mL/min/g; t1/2 [9]: 1.4 h; Activity (OVCAR-3 [10]): 1703.74 mm3; Activity (OVCAR-3 [11]): Active; inhibition [12]: inactive; inhibition [13]: Dose-Dependent Effect; Activity (TOV21G): Active; Activity (OVCAR-3 [14]): Active; Cmax [15]: 20.3 ng/mL; CLH [4]: 34.8 mL/min/g; AUClast [16]: 480 ng·h/mL; Activity (HEK293): Non-Toxic; Activity (SK-OV-3): Active; inhibition [17]: 50%; inhibition [18]: Dose-Dependent Effect; Activity [19]: Toxic; CLH [5]: 66.5 mL/min/g |
